Tested on: plasma Abeta1-40
Experiment: Plasma Abeta1-40 in human subjects after oral thiethylperazine (INNO-BIA plasma Abeta forms immunoassay)
Type: in vivo
Settings: for average increase in plasma Abeta1-40: day 1; for subjects with an increase of plasma Abeta1-40: oral
Description: Samples of 10 ml venous blood were collected in standardized test tubes containing ethylene diamine tetraacetic acid (EDTA) and gently shaken 1-2 times. As soon as possible (within max. 30 min.) samples were centrifuged at 1600 g, room temperature for 10 min. Plasma was aliquoted into 6 portions of 0.5 ml. All aliquots were frozen into a deep freezer (-80° C.) within 10 min after the centrifugation and stored until use. Abeta measurements were performed using the bead-based INNO-BIA plasma Abeta forms immunoassay (Innogenetics/Fujirebio Europe, Gent, Belgium) according to the manufacturer's protocol. Plasma samples and all other kit reagents were prepared according to the manufacturer's protocol. In brief, plasma samples were thawed at room temperature, centrifuged at 4000 g for 10 min to remove any possible debris, vortexed and then diluted 3-fold using Plasma Diluent. After transferring into the filter plate diluted samples, controls and standards were washed and incubated shaking overnight at 4° C. after the addition of the first conjugate. On the next day, all wells were washed 3 times and incubated with detection conjugate for 1 h at room temperature. After another 3 times washing, reading solution was added to all wells and the measurements were performed on a Luminex IS 100 (Luminex Corporation, Austin, TX, USA) platform after 2 minutes of shaking. Luminex instrument settings used were: gate-7500 to 15000, sample volume-50 μL and counts per region-100 beads. Standard curve calculation was performed using Stata 14.2 (StataCorp, College Station, TX, USA) employing a four-parametric logistic fit (nl log4 command). All standards, controls, and the patients' samples were analyzed in duplicates; all samples from a given individual were assayed in one analytical run. The duplicate-averaged concentrations (in pg/ml) of the two biomarkers (Abeta1-40 and Abeta1-42) were calculated. In all eight standard-curves fitting models (4 runs×2 biomarkers), adjusted R-squared statistics were higher than 0.995, which speaks for excellent curve fitting quality. Herein below, thiethylperazine was used as thiethylperazine maleate, wherein the weight-based amounts [in mg] are indicated with respect to thiethylperazine; the weight-based amounts of thiethylperazine maleate [in mg] are indicated in parenthesis. […] On day 1 (t=0 h), blood samples were taken from all subjects. […] Plasma Abeta was considered an indicator of brain Abeta content and Abeta export with higher plasma Abeta concentrations indicating higher Abeta clearance from the brain (Ferrero, Williams et al. 2016, […], Chiao et al. 2016).

CCSc1ccc2c(c1)N(CCCN1CCN(C)CC1)c1ccccc1S2 [thiethylperazine, 2-(ethylsulfanyl)-10-[3-(4-methylpiperazin-1-yl)propyl]-10H-phenothiazine]
mean plasma Abeta1-40 concentration difference between responders and non-responders (6.5 mg thiethylperazine): 33.04 pg/mL | average increase in plasma Abeta1-40 (6.5 mg thiethylperazine): 7.8% | mean plasma Abeta1-40 concentration difference between responders and non-responders (13 mg thiethylperazine): 28.07 pg/mL | average increase in plasma Abeta1-40 (13 mg thiethylperazine): 7.8% | subjects with an increase of plasma Abeta1-40 (26 mg thiethylperazine (41.12 mg maleate) per day over three consecutive days, steady state, 15 subjects (comparative)): 40% | average change of plasma Abeta1-40 (26 mg thiethylperazine per day over three consecutive days, steady state): 6.5% | mean plasma Abeta1-40 concentration difference between responders and non-responders (26 mg thiethylperazine, steady state): 16.53 pg/mL | subjects with an increase of plasma Abeta1-40 (after second administration on day 1, dose of 13 mg thiethylperazine (20.56 mg maleate), 15 subjects): 87% | subjects with an increase of plasma Abeta1-40 (initial dose of 6.5 mg thiethylperazine (10.28 mg maleate), day 1, blood four hours after administration, 15 subjects): 53% | average increase in plasma Abeta1-40 higher compared to higher dose (lower dose 2-20 mg (6.5 mg and 13 mg) versus 26 mg): ≥ 20%

From patent US20250082647A1, “SPECIFIC DOSAGE OF PHENOTHIAZINE COMPOUNDS FOR USE IN TREATMENT OR PREVENTION OF ALZHEIMER'S DEMENTIA” (IMMUNGENETICS AG, priority 2022, published 2025)
